Test results published in publication PMC10919040, “Exploration of newly synthesized azo-thiohydantoins as the potential alkaline phosphatase inhibitors via advanced biochemical characterization and molecular modeling approaches” (BMC Chemistry, 2024).

Assays:
[1] = molecular target: intestinal alkaline phosphatase (IAP) (Bos taurus, UniProt P19111); experiment: Alkaline phosphatase inhibition assay (spectrophotometric, p-NPP substrate); format: biochemical, calf; conditions: p-NPP 0.5 mM, pH 9.5, 37 °C, Mean ± SEM
Experimental: The measurement of intestinal alkaline phosphatase (IAP) activity was conducted using a spectrophotometric method, as described earlier. […] Additionally, 10 µL of the compound was added to the mixture. The mixture was subjected to pre-incubation with 5 µL of IAP (0.025 U/mL) for a duration of 10 min. The reaction was started by introducing 10 µL of the substrate, which was 0.5 mM p-NPP (para nitrophenyl phosphate disodium salt). Following the addition, the assay underwent an incubation period of 30 min at a temperature of 37 °C. The change in absorbance resulting from the release of p-nitrophenolate was monitored at a wavelength of 405 nm using a Thermo Scientific™ Multiskan GO™ microplate reader. The experiment was repeated three times, with each repetition being done in triplicate. […] The calculation of inhibition activity and IC50 values were carried out as discussed earlier.

intestinal alkaline phosphatase (IAP), sequence (P19111 20-533): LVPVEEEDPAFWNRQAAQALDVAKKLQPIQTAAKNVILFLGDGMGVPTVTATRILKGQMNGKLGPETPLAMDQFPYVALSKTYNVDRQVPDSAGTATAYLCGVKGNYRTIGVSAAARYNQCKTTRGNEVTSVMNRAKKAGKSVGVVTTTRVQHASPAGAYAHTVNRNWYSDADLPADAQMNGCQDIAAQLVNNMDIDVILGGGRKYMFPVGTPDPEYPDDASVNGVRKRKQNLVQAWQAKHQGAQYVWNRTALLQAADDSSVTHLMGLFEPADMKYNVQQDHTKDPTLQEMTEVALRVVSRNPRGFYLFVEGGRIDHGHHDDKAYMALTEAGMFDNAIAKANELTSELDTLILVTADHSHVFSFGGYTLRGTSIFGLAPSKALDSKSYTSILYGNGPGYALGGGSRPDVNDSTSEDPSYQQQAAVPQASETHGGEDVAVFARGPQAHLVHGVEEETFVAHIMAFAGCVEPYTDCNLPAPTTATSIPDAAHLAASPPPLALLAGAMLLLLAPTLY

SMILES	IC50 [1] [µM]	melting point [°C]
O=C1CNC(=S)N1/N=C/c1cc(/N=N/c2ccccc2)ccc1O [Compound 7a, 3-((E)-(2-hydroxy-5-((E)-phenyldiazenyl)benzylidene)amino)-2-thioxoimidazolidin-4-one]	4.85 ± 0.985	
O=C1CNC(=S)N1/N=C/c1cc(/N=N/c2ccc(S(=O)(=O)O)cc2)ccc1O [Compound 7b, 4-((E)-(4-hydroxy-3-((E)-((5-oxo-2-thioxoimidazolidin-1-yl)imino)methyl)phenyl)-diazenyl)benzenesulfonic acid]	1.28 ± 0.214	
O=C1CNC(=S)N1/N=C/c1cc(/N=N/c2cccc(Cl)c2Cl)ccc1O [Compound 7c, 3-((E)-(5-((E)-(2,3-dichlorophenyl)diazenyl)-2-hydroxybenzylidene)amino)-2 thioxoimidazolidin-4-one]	3.07 ± 0.687	
Cc1c(Cl)cccc1/N=N/c1ccc(O)c(/C=N/N2C(=O)CNC2=S)c1 [Compound 7d, 3-((E)-(5-((E)-(3-chloro-2-methylphenyl)diazenyl)-2-hydroxybenzylidene)amino)-2-thioxoimidazolidin-4-one]	3.15 ± 0.853	
O=C(O)c1ccc(/N=N/c2ccc(O)c(/C=N/N3C(=O)CNC3=S)c2)cc1 [Compound 7e, 4-((E)-(4-hydroxy-3-((E)-((5-oxo-2-thioxoimidazolidin-1-yl)imino)methyl)phenyl)diazenyl)benzoic acid]	0.308 ± 0.065	
O=C1CNC(=S)N1/N=C/c1cc(/N=N/c2ccc([N+](=O)[O-])cc2)ccc1O [Compound 7f, 3-((E)-(2-hydroxy-5-((E)-(4-nitrophenyl)diazenyl)benzylidene)amino)-2-thioxoimidazolidin-4-one]	0.836 ± 0.097	271 to 273
N[C@@H](Cc1ccccc1)C(=O)O [L–Phenyl alanine, reference compound]	80.2 ± 1.1	
